The structures appear in SMILES notation.

What all share (assay): biochemical
Holding throughout (set-up): DiscoverX KinomeScan competition binding assay across human kinases; per cent of control at 10 and 100 uM

One assay has as its target MAP3K3 (Homo sapiens, UniProt Q99759). The following applies: competition binding, % of control; read-out: Percent Control (100 uM Levosimendan). The essentials: (§1)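 Binding is expressed as %control, normalised between positive and negative control signals. The compound (levosimendan) was tested at 10 μM and 100 μM in the DiscoverX KinomeScan competition binding format against human kinases.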

Another assay addresses CAMK1D (Homo sapiens, UniProt Q8IU85). The following applies: competition binding, % of control; read-out: Percent Control (100 uM Levosimendan). In a few lines: as §1
The target in assay [1] is T1, ABL1(T315I)-phosphorylated (Homo sapiens, UniProt P00519, T315I).
T1 construct: phosphorylated
The following applies: competition binding, % of control; read-out: Percent Control (100 uM Levosimendan). The essentials:
as §1

The next assay has as its target T2, MRCKA (Homo sapiens, UniProt Q5VT25).
T2 construct: gene CDC42BPA
The following applies: competition binding, % of control; read-out: Percent Control (100 uM Levosimendan). In a few lines:
as §1

For another assay, the target named is CDK2 (Homo sapiens, UniProt P24941). The following applies: competition binding, % of control; read-out: Percent Control (100 uM Levosimendan). The essentials: as §1
A further assay concerns the target GSK3B (Homo sapiens, UniProt P49841). Particulars: competition binding, % of control; read-out: Percent Control (100 uM Levosimendan). The essentials: as §1
Another assay addresses STK35 (Homo sapiens, UniProt Q8TDR2). The following applies: competition binding, % of control; read-out: Percent Control (100 uM Levosimendan). In a few lines: as §1
In the next assay the target is T3, TRKA (Homo sapiens, UniProt P04629).
T3 construct: gene NTRK1
The following applies: competition binding, % of control; read-out: Percent Control (100 uM Levosimendan). In a few lines:
as §1

A further assay addresses T4, PRKR (Homo sapiens, UniProt P19525).
T4 construct: gene EIF2AK2
The following applies: competition binding, % of control; read-out: Percent Control (100 uM Levosimendan). The essentials:
as §1

A further assay concerns the target MAP4K3 (Homo sapiens, UniProt Q8IVH8). The following applies: competition binding, % of control; read-out: Percent Control (100 uM Levosimendan). The essentials: as §1
The next assay concerns the target BTK (Homo sapiens, UniProt Q06187). The following applies: competition binding, % of control; read-out: Percent Control (100 uM Levosimendan). In a few lines: as §1
The target in another assay is T5, DCAMKL3 (Homo sapiens, UniProt Q9C098).
T5 construct: gene DCLK3
Particulars: competition binding, % of control; read-out: Percent Control (100 uM Levosimendan). The essentials:
as §1

The next assay addresses EGFR(T790M) (Homo sapiens, UniProt P00533, T790M). Particulars: competition binding, % of control. In a few lines: as §1
In a further assay the target is HIPK4 (Homo sapiens, UniProt Q8NE63). The following applies: competition binding, % of control; read-out: Percent Control (100 uM Levosimendan). In a few lines: as §1
The target in another assay is RET (Homo sapiens, UniProt P07949). The following applies: competition binding, % of control; read-out: Percent Control (100 uM Levosimendan). The essentials:
as §1

The target in another assay is RIPK4 (Homo sapiens, UniProt P57078). The following applies: competition binding, % of control; read-out: Percent Control (100 uM Levosimendan). In a few lines:
as §1

The next assay addresses CIT (Homo sapiens, UniProt O14578). The following applies: competition binding, % of control; read-out: Percent Control (100 uM Levosimendan). In a few lines:
as §1

The target in the next assay is T6, ERK3 (Homo sapiens, UniProt Q16659).
T6 construct: gene MAPK6
Particulars: competition binding, % of control; read-out: Percent Control (100 uM Levosimendan). In a few lines: as §1

The target of another assay is CSNK1D (Homo sapiens, UniProt P48730). The following applies: competition binding, % of control; read-out: Percent Control (100 uM Levosimendan). In a few lines:
as §1

EGFR(T790M), sequence (P00533 whole entry T790M): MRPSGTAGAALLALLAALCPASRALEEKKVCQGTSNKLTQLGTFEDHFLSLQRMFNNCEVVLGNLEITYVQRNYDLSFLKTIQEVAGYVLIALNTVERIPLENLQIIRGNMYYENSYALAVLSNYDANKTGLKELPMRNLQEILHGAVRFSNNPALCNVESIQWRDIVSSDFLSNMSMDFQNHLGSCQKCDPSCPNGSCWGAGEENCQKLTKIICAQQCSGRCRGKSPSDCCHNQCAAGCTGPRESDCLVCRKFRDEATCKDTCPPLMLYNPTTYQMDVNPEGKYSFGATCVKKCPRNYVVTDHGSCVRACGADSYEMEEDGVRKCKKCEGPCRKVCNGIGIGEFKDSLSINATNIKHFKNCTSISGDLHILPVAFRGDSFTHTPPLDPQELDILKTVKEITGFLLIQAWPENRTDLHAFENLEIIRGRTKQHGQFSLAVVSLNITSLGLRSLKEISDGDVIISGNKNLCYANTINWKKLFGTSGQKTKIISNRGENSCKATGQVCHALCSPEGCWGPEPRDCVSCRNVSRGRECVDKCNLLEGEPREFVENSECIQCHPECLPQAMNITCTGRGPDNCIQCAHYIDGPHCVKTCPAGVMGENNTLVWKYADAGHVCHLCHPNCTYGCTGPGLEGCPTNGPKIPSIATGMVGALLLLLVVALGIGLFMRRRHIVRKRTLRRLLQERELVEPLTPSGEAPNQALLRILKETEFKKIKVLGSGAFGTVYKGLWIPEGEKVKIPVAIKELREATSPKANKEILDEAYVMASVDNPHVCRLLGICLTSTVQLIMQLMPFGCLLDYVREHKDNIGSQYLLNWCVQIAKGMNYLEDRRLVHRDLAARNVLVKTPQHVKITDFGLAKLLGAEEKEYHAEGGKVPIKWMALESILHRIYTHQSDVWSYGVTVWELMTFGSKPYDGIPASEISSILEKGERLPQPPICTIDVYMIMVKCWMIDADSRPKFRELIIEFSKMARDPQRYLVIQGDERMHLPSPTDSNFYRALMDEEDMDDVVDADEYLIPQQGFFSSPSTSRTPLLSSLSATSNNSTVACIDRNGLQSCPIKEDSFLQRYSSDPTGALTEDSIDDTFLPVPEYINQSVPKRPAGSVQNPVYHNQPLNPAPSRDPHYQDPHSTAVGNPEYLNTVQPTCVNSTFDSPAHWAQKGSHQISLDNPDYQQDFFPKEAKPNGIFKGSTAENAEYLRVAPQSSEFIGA
RET, sequence (P07949 whole entry): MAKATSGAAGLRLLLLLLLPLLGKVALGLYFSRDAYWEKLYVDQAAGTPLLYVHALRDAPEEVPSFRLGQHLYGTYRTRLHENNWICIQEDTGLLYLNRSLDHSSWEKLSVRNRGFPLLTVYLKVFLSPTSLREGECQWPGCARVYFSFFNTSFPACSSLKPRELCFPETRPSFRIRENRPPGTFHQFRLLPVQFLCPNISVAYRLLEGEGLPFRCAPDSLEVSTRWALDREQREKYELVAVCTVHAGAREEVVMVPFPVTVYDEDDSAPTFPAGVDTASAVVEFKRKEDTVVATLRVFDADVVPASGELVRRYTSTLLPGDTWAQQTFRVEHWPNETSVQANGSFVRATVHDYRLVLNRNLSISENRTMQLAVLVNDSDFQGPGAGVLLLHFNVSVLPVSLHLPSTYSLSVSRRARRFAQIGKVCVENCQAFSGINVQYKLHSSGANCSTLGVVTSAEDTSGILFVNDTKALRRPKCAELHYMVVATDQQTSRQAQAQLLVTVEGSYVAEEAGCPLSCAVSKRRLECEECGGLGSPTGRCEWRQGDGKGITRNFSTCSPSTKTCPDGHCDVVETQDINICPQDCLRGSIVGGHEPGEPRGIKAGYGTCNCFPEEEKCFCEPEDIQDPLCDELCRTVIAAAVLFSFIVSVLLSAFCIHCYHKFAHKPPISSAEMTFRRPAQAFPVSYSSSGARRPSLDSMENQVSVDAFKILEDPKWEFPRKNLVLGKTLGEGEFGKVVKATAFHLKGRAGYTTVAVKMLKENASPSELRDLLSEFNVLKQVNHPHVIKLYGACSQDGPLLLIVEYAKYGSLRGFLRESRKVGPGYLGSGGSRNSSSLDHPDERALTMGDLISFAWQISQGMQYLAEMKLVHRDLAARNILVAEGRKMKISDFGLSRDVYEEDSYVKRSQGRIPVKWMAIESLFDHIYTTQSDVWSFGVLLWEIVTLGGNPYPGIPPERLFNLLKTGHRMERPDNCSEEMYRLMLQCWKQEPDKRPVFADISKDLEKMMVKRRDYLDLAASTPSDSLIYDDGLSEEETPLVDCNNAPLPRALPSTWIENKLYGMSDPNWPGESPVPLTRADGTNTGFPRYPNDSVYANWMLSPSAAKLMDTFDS
CSNK1D, sequence (P48730 whole entry): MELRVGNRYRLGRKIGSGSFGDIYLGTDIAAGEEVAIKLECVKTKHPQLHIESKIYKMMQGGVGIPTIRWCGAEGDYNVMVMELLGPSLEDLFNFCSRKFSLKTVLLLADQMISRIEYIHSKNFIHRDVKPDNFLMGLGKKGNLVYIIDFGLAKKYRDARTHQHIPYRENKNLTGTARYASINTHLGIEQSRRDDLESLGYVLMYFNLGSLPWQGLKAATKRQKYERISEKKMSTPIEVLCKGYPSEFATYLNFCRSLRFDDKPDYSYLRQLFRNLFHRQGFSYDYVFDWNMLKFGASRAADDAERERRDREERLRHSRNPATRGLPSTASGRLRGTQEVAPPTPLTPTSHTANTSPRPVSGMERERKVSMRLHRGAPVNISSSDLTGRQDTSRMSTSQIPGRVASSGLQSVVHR
GSK3B, sequence (P49841 whole entry): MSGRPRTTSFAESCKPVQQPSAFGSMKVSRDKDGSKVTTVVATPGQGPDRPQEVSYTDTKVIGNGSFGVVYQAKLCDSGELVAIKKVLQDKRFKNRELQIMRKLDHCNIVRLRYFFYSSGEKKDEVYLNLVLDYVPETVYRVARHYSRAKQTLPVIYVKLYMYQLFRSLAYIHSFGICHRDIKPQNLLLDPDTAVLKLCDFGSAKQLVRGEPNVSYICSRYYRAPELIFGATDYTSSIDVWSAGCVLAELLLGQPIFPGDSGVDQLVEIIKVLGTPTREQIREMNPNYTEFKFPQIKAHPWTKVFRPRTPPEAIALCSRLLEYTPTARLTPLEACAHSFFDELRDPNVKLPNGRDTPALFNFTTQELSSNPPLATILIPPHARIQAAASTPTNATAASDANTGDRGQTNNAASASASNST
HIPK4, sequence (Q8NE63 whole entry): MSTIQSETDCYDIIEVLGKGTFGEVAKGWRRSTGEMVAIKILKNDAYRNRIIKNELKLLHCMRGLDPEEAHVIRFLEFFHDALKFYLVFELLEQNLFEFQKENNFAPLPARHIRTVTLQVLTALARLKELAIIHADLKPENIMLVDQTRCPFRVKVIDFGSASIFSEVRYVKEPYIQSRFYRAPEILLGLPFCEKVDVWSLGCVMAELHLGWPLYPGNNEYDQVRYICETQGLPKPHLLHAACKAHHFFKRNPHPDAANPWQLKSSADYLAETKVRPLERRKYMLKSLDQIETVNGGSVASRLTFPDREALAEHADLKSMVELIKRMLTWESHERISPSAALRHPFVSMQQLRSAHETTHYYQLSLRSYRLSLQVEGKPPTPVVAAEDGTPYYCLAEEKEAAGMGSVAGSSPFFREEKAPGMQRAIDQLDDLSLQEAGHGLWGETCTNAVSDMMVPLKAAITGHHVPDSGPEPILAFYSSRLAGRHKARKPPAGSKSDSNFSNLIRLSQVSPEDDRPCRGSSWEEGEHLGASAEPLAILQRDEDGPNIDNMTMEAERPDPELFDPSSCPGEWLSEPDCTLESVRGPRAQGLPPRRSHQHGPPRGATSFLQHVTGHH
STK35, sequence (Q8TDR2 whole entry): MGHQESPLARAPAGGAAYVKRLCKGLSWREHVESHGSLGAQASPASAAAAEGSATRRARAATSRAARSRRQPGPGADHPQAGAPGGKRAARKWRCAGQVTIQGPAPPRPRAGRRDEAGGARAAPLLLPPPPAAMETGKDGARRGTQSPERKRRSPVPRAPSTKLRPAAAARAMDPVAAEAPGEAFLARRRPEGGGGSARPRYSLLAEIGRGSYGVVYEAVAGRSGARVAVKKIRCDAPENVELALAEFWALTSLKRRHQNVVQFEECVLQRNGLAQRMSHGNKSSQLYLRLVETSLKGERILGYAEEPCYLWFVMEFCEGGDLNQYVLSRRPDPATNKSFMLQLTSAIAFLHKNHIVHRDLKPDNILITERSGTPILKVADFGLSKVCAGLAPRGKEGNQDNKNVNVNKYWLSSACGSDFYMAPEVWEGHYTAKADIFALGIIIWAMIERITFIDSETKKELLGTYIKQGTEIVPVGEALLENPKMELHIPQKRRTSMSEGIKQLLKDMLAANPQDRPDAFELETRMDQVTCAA
CAMK1D, sequence (Q8IU85 whole entry): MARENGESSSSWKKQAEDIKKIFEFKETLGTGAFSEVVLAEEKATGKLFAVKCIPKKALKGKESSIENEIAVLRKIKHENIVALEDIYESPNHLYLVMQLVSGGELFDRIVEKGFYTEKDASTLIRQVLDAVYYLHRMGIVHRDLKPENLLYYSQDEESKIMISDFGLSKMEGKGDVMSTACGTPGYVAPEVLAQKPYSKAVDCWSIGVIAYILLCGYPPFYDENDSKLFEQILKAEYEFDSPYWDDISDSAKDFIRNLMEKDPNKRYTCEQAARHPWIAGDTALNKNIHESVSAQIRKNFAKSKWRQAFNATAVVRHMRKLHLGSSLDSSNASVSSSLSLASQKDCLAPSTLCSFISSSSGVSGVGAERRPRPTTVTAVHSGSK

For `C[C@@H]1CC(=O)NN=C1c1ccc(NN=C(C#N)C#N)cc1` [levosimendan], the remaining binding at 100 µM stood at 66% on MAP3K3; 57% at CAMK1D; 64% in [1]; 90% at MRCKA; 97% on CDK2; 100% at GSK3B. In addition, the remaining binding at 100 µM at STK35 came to 81%; at TRKA, 65%; at PRKR it was 96%; on MAP4K3, 95%; on BTK, 100%; at DCAMKL3, 100%. The remaining binding at 100 µM at EGFR(T790M) (read-out: Percent Control (100 uM Levosimendan)) was found to be 31%; on HIPK4, 84%; at RET it was 88%; at RIPK4, 99%; on CIT, 59%; at ERK3 it was 79%. Also, at CSNK1D, the remaining binding at 100 µM was found to be 84%. Also, the remaining binding at 10 µM at EGFR(T790M) (read-out: Percent Control (10 uM Levosimendan)) is 88%.

The values are drawn from publication PMC6576746, “Rational discovery of dual-indication multi-target PDE/Kinase inhibitor for precision anti-cancer therapy using structural systems pharmacology” (PLoS Computational Biology, 2019).
